{"source": "paper PMC10762035", "about": "“Molecular basis of human trace amine-associated receptor 1 activation” (Nature Communications, 2024)", "key": {"[1]": {"target": "T1, hTA1 (Homo sapiens, UniProt Q96RJ0)", "T1 construct": "expressed in transfected cells; host or cells: HEK293T", "T1 sequence (Q96RJ0 1-339)": "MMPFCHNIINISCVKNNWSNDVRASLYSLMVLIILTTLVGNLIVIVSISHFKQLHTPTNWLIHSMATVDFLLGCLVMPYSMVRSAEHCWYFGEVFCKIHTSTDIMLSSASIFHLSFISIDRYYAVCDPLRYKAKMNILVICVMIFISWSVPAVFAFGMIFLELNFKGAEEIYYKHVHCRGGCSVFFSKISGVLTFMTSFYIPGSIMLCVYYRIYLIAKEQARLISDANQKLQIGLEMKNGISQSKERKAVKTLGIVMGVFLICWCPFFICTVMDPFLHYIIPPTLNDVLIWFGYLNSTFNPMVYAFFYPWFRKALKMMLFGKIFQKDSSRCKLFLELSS", "assay": "GloSensor cAMP accumulation assay, concentration response, wild-type hTA1 in transfected HEK293T cells;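 further: luminescence read after 30 min compound exposure at room temperature in cells preloaded with D-Luciferin, reflecting Gs-driven cAMP rise, efficacy scaled to the maximal β-PEA response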", "format": "cell-based", "details": "for Emax: HEK-293T"}, "[2]": {"target": "T2, hTA1 R83H (Homo sapiens, UniProt Q96RJ0, R83H)", "T2 construct": "expressed in transfected cells; host or cells: HEK293T", "T2 sequence (Q96RJ0 1-339 R83H)": "T1 sequence (Q96RJ0 1-339) with R83H", "assay": "GloSensor cAMP accumulation assay, R83H mutant;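 further: cells transiently co-expressing hTA1 and a cAMP GloSensor, luminescence read 30 min after agonist addition at room temperature, concentration–response fitted by non-linear regression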", "format": "cell-based"}, "[3]": {"target": "T3, hTA1 I290Y (Homo sapiens, UniProt Q96RJ0, I290Y)", "T3 construct": "expressed in transfected cells; host or cells: HEK293T", "T3 sequence (Q96RJ0 1-339 I290Y)": "T1 sequence (Q96RJ0 1-339) with I290Y", "assay": "GloSensor cAMP accumulation assay, I290Y mutant;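 on cAMP accumulation response, normalized (concentration-response source data, single replicate values): normalized to the maximum response of β-PEA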", "format": "cell-based", "details": "for cAMP accumulation response, normalized (concentration-response source data, single replicate values): hTA1 I290Y (N=3), log[Compound]"}, "[4]": {"target": "T4, hTA1 T194A (Homo sapiens, UniProt Q96RJ0, T194A)", "T4 sequence (Q96RJ0 1-339 T194A)": "T1 sequence (Q96RJ0 1-339) with T194A", "assay": "GloSensor cAMP accumulation assay, T194A mutant"}, "[5]": {"details": "read-out: Span ± SEM (Emax normalized to β-PEA)"}}, "note": "Where a chain is given by its changes, count along the chain named. Values joined by “and” are separate entries in the source; they are usually repeats but may differ in a detail not shown here. Equal values may be shown once. Read-outs that look alike come from different tables or passages of the source."}
{"smiles": "CCC(CC1COC(N)=N1)c1ccccc1", "note": "(stereo not drawn) [Ro5256390]", "values": [{"measurement": "EC50", "setting": "[1]; EC50, wt hTA1, HEK293T, n=3", "result": "5.33 nM and 5.3 nM"}, {"measurement": "Emax", "setting": "[1]; read-out: Emax values (Mean), WT hTA1, β-PEA = 100, each line an independent experiment, 3 replicates", "result": 105, "unit": "%"}, {"measurement": "Emax", "setting": "[1]; wt hTA1, relative to β-PEA", "result": 103, "unit": "%"}, {"measurement": "Emax values, Mean", "setting": "[1]; WT hTA1, β-PEA = 100, each line an independent experiment, 3 replicates", "result": 101.582}, {"measurement": "Emax values, Avg", "setting": "[1]; WT, average of the experiments, β-PEA = 100", "result": 103.3}, {"measurement": "Emax values, Avg", "setting": "[1]; WT, average of the two experiments", "result": 103.3}, {"measurement": "Emax values, Mean", "setting": "[1]; WT, mean of each independent experiment (3 replicates), β-PEA = 100", "result": "105.026 and 101.582"}, {"measurement": "Emax values, Mean", "setting": "[1]; WT, single experiments (3 replicates each), β-PEA = 100", "result": "105.026 and 101.582"}, {"measurement": "EC50", "setting": "[1]; pEC50 values (Mean), WT hTA1, each line an independent experiment, 3 replicates, Figure 2B source data", "result": "4.28 nM and 6.65 nM"}, {"measurement": "EC50", "setting": "[1]; pEC50 ± SEM, wt hTA1, HEK293T, n=3", "result": 5.37, "unit": "nM"}, {"measurement": "EC50", "setting": "[2]; EC50, R83H, n=2", "result": 5.19, "unit": "nM"}, {"measurement": "ΔEmax values (each mutant value - WT average)", "setting": "[2]; R83H mutant minus WT average", "result": -44.6015}, {"measurement": "ΔpEC50 values (each mutant value - WT average)", "setting": "[2]; R83H mutant minus WT average", "result": "-0.01027 and 0.0342"}, {"measurement": "Emax values, Mean", "setting": "[2]; R83H mutant, β-PEA = 100, each line an independent experiment, 3 replicates", "result": "58.7027 and 38.4174"}, {"measurement": "EC50", "setting": "[2]; pEC50 values (Mean), R83H mutant, each line an independent experiment, 3 replicates", "result": "5.46 nM and 4.93 nM"}, {"measurement": "Emax", "setting": "[2]; read-out: Span ± SEM (Emax normalized to β-PEA), R83H, n=2", "result": "48.6 ± 10.1", "unit": "%"}, {"measurement": "EC50", "setting": "[3]; EC50, I290Y", "result": 3.79, "unit": "nM"}, {"measurement": "Emax values, Mean", "setting": "[3]; I290Y, single experiments (3 replicates each), β-PEA = 100", "result": "89.4977 and 95.7835 and 67.042"}, {"measurement": "cAMP accumulation response, normalized (concentration-response source data, single replicate values)", "setting": "[3]; M = -5", "result": "116.004 and 90.4575 and 99.9991 and 95.6306 and 94.8977 and 106.257 and 79.386 and 92.9217 and 71.4902"}, {"measurement": "cAMP accumulation response, normalized (concentration-response source data, single replicate values)", "setting": "[3]; M = -5.522", "result": "112.926 and 87.6874 and 89.8419 and 104.792 and 95.2641 and 96.3635 and 62.4664 and 47.8027 and 61.3384"}, {"measurement": "cAMP accumulation response, normalized (concentration-response source data, single replicate values)", "setting": "[3]; M = -6", "result": "83.3783 and 72.6056 and 91.3809 and 91.5998 and 83.1717 and 95.997 and 59.0825 and 62.4664 and 68.1063"}, {"measurement": "cAMP accumulation response, normalized (concentration-response source data, single replicate values)", "setting": "[3]; M = -6.522", "result": "92.9198 and 66.4498 and 97.2289 and 82.4388 and 92.3327 and 95.997 and 63.5944 and 55.6986 and 61.3384"}, {"measurement": "cAMP accumulation response, normalized (concentration-response source data, single replicate values)", "setting": "[3]; M = -7", "result": "110.156 and 60.6017 and 92.3043 and 89.4012 and 82.4388 and 95.997 and 47.8027 and 61.3384 and 55.6986"}, {"measurement": "cAMP accumulation response, normalized (concentration-response source data, single replicate values)", "setting": "[3]; M = -7.522", "result": "92.6121 and 50.1368 and 96.6133 and 79.5073 and 85.3703 and 95.2641 and 50.0587 and 56.8265 and 52.3146"}, {"measurement": "cAMP accumulation response, normalized (concentration-response source data, single replicate values)", "setting": "[3]; M = -8", "result": "93.8432 (2×) and 82.1471 and 71.4457 and 85.3703 and 69.6135 and 30.8831 (2×) and 25.2433"}, {"measurement": "cAMP accumulation response, normalized (concentration-response source data, single replicate values)", "setting": "[3]; M = -8.522", "result": "58.1394 and 51.6758 and 54.7537 and 45.0622 and 47.6273 and 45.4287 and 15.0915 and 9.4516 and 13.9635"}, {"measurement": "cAMP accumulation response, normalized (concentration-response source data, single replicate values)", "setting": "[3]; M = -9", "result": "42.442 and 23.359 and 39.3641 and 21.9767 and 28.939 and 28.2061 and 3.812 and 2.684 and 9.4516"}, {"measurement": "cAMP accumulation response, normalized (concentration-response source data, single replicate values)", "setting": "[3]; M = -9.522", "result": "12.5863 and 7.046 and 12.2785 and 10.9836 and 8.785 and 11.7164 and -2.956 and -1.828 and 0.4278"}, {"measurement": "cAMP accumulation response, normalized (concentration-response source data, single replicate values)", "setting": "[3]; M = -10", "result": "11.6629 and 9.816 and 11.9707 and -2.575 and -0.376 and 1.456 and 0.4278 and -0.7002 and -1.828"}, {"measurement": "cAMP accumulation response, normalized (concentration-response source data, single replicate values)", "setting": "[3]; M = -10.522", "result": 3.045}, {"measurement": "EC50", "setting": "[3]; pEC50 values, Mean, I290Y, single experiments (3 replicates each)", "result": "1.77 nM and 2.74 nM and 11.3 nM"}, {"measurement": "EC50", "setting": "[3]; pEC50 ± SEM, I290Y", "result": 3.8, "unit": "nM"}, {"measurement": "Emax", "setting": "[3]; [5]", "result": "84.1 ± 8.72", "unit": "%"}, {"measurement": "EC50", "setting": "[4]; EC50, T194A", "result": 34.8, "unit": "nM"}, {"measurement": "Emax values, Mean", "setting": "[4]; T149A (so in the source), single experiments (3 replicates each), β-PEA = 100", "result": "128.602 and 110.169 and 108.613"}, {"measurement": "reduction in potency vs wild type", "setting": "[4]; T194A", "result": "over 5 fold"}, {"measurement": "EC50", "setting": "[4]; pEC50 values, Mean, T149A (so in the source), single experiments (3 replicates each)", "result": "34.8 nM and 27.7 nM and 14.2 nM"}, {"measurement": "EC50", "setting": "[4]; pEC50 ± SEM, T194A", "result": 24, "unit": "nM"}, {"measurement": "Emax", "setting": "[4]; [5]", "result": "116 ± 9.22", "unit": "%"}]}
